Laboratory results reported in US12492337B2, “Fluorescent probe, preparation method therefor and use thereof” (FLUORESCENCE DIAGNOSIS (SHANGHAI) BIOTECH COMPANY, priority 2017, dated 2025).

Experiments:
[1] = Quantum yield of free probe not reacted with protein tag; format: physicochemical
Protocol: (§1) A probe was mixed with a corresponding HaloTag protein tag to obtain a mixed sample. The final concentration of the probe in the mixed sample was 5 μM and the final concentration of the protein tag was 10 μM. The mixed sample was incubated at 37° C. for 1 hour, and the sample was detected using a fluorescence spectrophotometer.

[2] = Viscosity responsiveness: fluorescence intensity in glycerol versus methanol; format: physicochemical; details: fluorescence intensity in glycerol to that in methanol
Protocol: The above-mentioned viscosity-responsive fluorescent dye means that the fluorescence intensity of the dye responds to the viscosity of the solution. As the viscosity of the solution increases, the fluorescence intensity increases. Optionally, the viscosity-responsive fluorescent dye is an organic dye molecule which, under the same concentration and excitation wavelength, at 25° C. has a ratio • of the maximum fluorescence emission intensity of the dye in glycerol to the fluorescence intensity in methanol of greater than 2, optionally greater than 5, optionally greater than 10. The concentration of the viscosity-responsive dye ranges from 1×10^−7 M to 1×10^−5 M.

HaloTag protein tag = test: Probe mixed with HaloTag protein tag, fluorescence spectrophotometer (Example 86); format: biochemical; details: 5 μM probe, 10 μM protein tag, 37° C., 1 hour; for Fluorescence enhancement: fluorescence activation multiple after binding protein tag; for Emission/nm: fluorescence emission wavelength
Protocol: as §1

Row | The quantum yield of the free probe [1] | ratio [2] | The quantum yield after binding to Halo-tag (HaloTag protein tag) | Emission/nm (HaloTag protein tag) [nm] | Compound | Fluorescence enhancement (HaloTag protein tag)
1 | <0.001 | 391 | 0.56 | 570 | CN(CCOC(=O)NCCOCCOCCCCCCCl)c1ccc2cc(/C=C(\C#N)C(=O)OC(C)(C)C)sc2c1 [Probe 13] | 816
2 | <0.001 | 1774 | 0.32 | 615 | COCCNC(=O)/C(C#N)=C/c1ccc(-c2ccc(N(C)CCOC(=O)NCCOCCOCCCCCCCl)cc2)o1 [Probe 34] | 857
3 | 0.0012 | 470 | 0.52 | 550 | CN(C)c1ccc2c(c1)C(C)(C)c1cc(/C=C(\C#N)C(=O)NCCOCCOCCCCCCCl)sc1-2 [Probe 86] | 618
4 | <0.001 | 521 | 0.40 | 743 | CN(C)c1ccc(-c2ccc(/C=C3\SC(=O)N(CCOCCOCCCCCCCl)C3=O)s2)s1 [Probe 81] | 563
5 | <0.001 | 498 | 0.51 | 725 | CN(C)c1cc2c(s1)-c1sc(/C=C3\SC(=S)N(CCOCCOCCCCCCCl)C3=O)cc1C2(C)C [Probe 79] | 419
6 | <0.001 | 1132 | 0.41 | 566 | CN(CCOC(=O)NCCOCCOCCCCCCCl)c1ccc(C#C/C=C(\C#N)C(=O)OC(C)(C)C)cc1 [Probe 28] | 551
7 | <0.001 | 334 | 0.54 | 680 | CN(CCOC(=O)NCCOCCOCCCCCCCl)c1cc2c(s1)-c1sc(/C=C(\C#N)c3nc4ccccc4o3)cc1C2(C)C [Probe 49] | 541
8 | 0.001 | 759 | 0.47 | 657 | CN(CCOC(=O)NCCOCCOCCCCCCCl)c1ccc(-c2ccc(/C=C(\C#N)C(=O)OC(C)(C)C)s2)s1 [Probe 40] | 421
9 | 0.0013 | 422 | 0.46 | 590 | CN(CCOC(=O)NCCOCCOCCCCCCCl)c1cc2sc(/C=C(\C#N)c3nc4ccccc4o3)cc2s1 [Probe 11] | 520
10 | <0.001 | 235 | 0.45 | 523 | CC1=CC(C)(C)N(CCOC(=O)NCCOCCOCCCCCCCl)c2ccc(/C=C(\C#N)C(=O)O)cc21 [Probe 47] | 358
11 | <0.001 | 341 | 0.47 | 640 | CN(CCOC(=O)NCCOCCOCCCCCCCl)c1ccc2nc(/C=C(\C#N)c3nc4ccccc4o3)oc2c1 [Probe 20] | 612
12 | 0.0018 | 320 | 0.47 | 535 | CN(CCOC(=O)NCCOCCOCCCCCCCl)c1ccc(C2=C(C#N)C(=C(C#N)C#N)OC2(C)C)cc1 [Probe 8] | 296
13 | <0.001 | 1183 | 0.40 | 530 | CN1C(=O)/C(=C/c2ccc(N(C)CCOC(=O)NCCOCCOCCCCCCCl)cc2)N=C1c1ccccc1 [Probe 6] | 989
14 | <0.001 | 560 | 0.52 | 610 | CN(CCOC(=O)NCCOCCOCCCCCCCl)c1ccc2cc(/C=C(\C#N)c3nc4ccccc4o3)sc2c1 [Probe 14] | 771
15 | <0.001 | 998 | 0.53 | 640 | CN(CCOC(=O)NCCOCCOCCCCCCCl)c1cc2sc3cc(/C=C(\C#N)C(=O)OC(C)(C)C)sc3c2s1 [Probe 29] | 621
16 | 0.001 | 1258 | 0.58 | 630 | CN(CCOC(=O)NCCOCCOCCCCCCCl)c1cc2cc3sc(/C=C(\C#N)C(=O)OC(C)(C)C)cc3cc2s1 [Probe 36] | 488
17 | <0.001 | 1123 | 0.56 | 590 | CN(CCOC(=O)NCCOCCOCCCCCCCl)c1ccc2nc(/C=C(\C#N)C(=O)OC(C)(C)C)ccc2c1 [Probe 26] | 910
18 | <0.001 | 386 | 0.53 | 550 | CNc1ccc2cc(/C=C(\C#N)C(=O)NCCOCCOCCCCCCCl)sc2c1 [Probe 66] | 512
19 | <0.001 | 851 | 0.50 | 480 | CN(CCOC(=O)NCCOCCOCCCCCCCl)c1ccc(/C=C(\C#N)C(=O)O)cc1 [Probe 9] | 745

Row | Compound | The quantum yield of the free probe [1] | ratio [2] | The quantum yield after binding to Halo-tag (HaloTag protein tag) | Emission/nm (HaloTag protein tag) [nm] | Fluorescence enhancement (HaloTag protein tag)
20 | CN1C(=O)/C(=C/c2ccc(N(C)CCOC(=O)NCCOCCOCCCCCCCl)cc2)N=C1/C=C/c1ccccc1 [Probe 7] | <0.001 | 1455 | 0.46 | 580 | 1502
21 | CN(CCOC(=O)NCCOCCOCCCCCCCl)c1cc2c(s1)-c1sc(/C=C(\C#N)C(=O)OC(C)(C)C)cc1[Si]2(C)C [Probe 38] | 0.0011 | 1011 | 0.56 | 650 | 503
22 | CN(CCOC(=O)NCCOCCOCCCCCCCl)c1cc2c(s1)-c1sc(/C=C(\C#N)c3nc4ccccc4s3)cc1[Si]2(C)C [Probe 39] | 0.0016 | 892 | 0.38 | 700 | 335
